Laboratory results from ChEMBL document CHEMBL1145308 (Bioorg Med Chem Lett, 2006).

Tests used:
[1] = target: T1, Sodium- and chloride-dependent glycine transporter 1 (Homo sapiens, UniProt P48067); assay: Inhibition of [3H]glycine uptake at GlyT1
T1 sequence (P48067 whole entry): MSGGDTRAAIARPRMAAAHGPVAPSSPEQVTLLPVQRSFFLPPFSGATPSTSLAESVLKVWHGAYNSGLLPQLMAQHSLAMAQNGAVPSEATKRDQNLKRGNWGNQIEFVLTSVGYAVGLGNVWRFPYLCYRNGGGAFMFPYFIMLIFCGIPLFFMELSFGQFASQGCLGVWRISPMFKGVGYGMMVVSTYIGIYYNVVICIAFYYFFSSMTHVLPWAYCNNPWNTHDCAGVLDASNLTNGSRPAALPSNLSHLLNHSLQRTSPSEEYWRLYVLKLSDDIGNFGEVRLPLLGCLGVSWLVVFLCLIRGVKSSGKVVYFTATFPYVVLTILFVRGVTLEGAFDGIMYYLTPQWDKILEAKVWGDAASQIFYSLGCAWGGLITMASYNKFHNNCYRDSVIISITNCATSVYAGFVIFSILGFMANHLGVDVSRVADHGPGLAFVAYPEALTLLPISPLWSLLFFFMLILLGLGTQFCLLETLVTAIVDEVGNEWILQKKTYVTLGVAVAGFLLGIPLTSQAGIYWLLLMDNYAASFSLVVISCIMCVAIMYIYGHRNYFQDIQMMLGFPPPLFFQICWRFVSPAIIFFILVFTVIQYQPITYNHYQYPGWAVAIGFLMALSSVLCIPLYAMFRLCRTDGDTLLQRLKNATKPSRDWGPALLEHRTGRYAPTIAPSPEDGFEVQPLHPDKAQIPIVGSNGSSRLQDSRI

[2] = target: T2, Sodium- and chloride-dependent glycine transporter 2 (Homo sapiens, UniProt Q9Y345); assay: Inhibition of [3H]glycine uptake at GlyT2
T2 sequence (Q9Y345 whole entry): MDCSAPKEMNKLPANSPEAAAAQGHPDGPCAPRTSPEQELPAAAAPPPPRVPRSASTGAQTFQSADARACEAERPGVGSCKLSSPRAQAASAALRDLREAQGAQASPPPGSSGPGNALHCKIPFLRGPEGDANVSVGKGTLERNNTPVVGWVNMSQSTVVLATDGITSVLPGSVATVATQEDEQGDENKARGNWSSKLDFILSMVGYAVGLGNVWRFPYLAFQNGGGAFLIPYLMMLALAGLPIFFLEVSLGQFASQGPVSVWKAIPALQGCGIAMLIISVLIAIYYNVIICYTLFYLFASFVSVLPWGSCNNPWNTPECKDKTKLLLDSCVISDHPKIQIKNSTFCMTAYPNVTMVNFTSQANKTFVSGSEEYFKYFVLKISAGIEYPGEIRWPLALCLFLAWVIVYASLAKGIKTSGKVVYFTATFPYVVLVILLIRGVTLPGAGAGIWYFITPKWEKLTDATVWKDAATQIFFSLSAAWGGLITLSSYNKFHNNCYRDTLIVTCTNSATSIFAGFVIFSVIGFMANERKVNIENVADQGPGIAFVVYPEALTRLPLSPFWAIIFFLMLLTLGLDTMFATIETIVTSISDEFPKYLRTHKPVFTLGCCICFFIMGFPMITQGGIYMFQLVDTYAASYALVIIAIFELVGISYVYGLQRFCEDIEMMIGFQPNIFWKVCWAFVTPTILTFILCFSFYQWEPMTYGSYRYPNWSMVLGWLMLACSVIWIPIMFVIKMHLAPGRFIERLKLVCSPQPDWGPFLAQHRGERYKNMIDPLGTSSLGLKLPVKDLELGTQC

in vitro [3] = conditions: mouse, microsomes, CL
Description: Intrinsic clearance in mouse microsome

in vitro [4] = conditions: human, microsomes, CL
Description: Intrinsic clearance in human microsome

in vitro [5] = conditions: mouse, microsomes, Max Achievable Bioavailability
Description: Maximum achievable bioavailability in mouse microsome

in vitro [6] = conditions: human, microsomes, Max Achievable Bioavailability
Description: Maximum achievable bioavailability in human microsome

| SMILES | EC50 [1] [nM] | further results |
| --- | --- | --- |
| O=C1NCC(c2ccc(F)cc2)C12CCN(C1(c3ccc(F)cc3)CCC1)CC2 (configuration not stated) | > 30000 | – |
| Cc1cccc(C2(N3CCC4(CC3)C(=O)NCC4c3ccc(F)cc3)CCCCC2)c1 (racemic) | 563 | EC50 [2]: > 30000 nM |
| O=C1NCC(c2ccc(C(F)(F)F)cc2)C12CCN(C1(c3ccc(F)cc3)CCCCC1)CC2 (racemic) | 433 | – |
| O=C1NCC(c2ccc(F)cc2)C12CCN(C1(C3CC3)CCCCC1)CC2 (racemic) | > 30000 | – |
| CC(C)C1(N2CCC3(CC2)C(=O)NCC3c2ccc(F)cc2)CCCCC1 (racemic) | 787 | – |
| N#Cc1cccc(C2(N3CCC4(CC3)C(=O)NCC4c3ccc(F)cc3)CCCCC2)c1 (racemic) | > 30000 | – |
| Cc1ccc(C2CNC(=O)C23CCN(C2(c4ccc(F)cc4)CCCCC2)CC3)cc1 (racemic) | 73 | – |
| O=C1NCC(c2ccccc2)C12CCN(C1(C3CCCC3)CCCCC1)CC2 (racemic) | 6290 | – |
| O=C1NCC(c2ccccc2)C12CCN(C1(C3CC3)CCCCC1)CC2 (racemic) | > 30000 | – |
| CCCC1CNC(=O)C12CCN(C1(c3ccc(F)cc3)CCCCC1)CC2 (racemic) | – | microsomal CLint (in vitro [3]): 24 µL/min/mg; microsomal CLint (in vitro [4]): 14 µL/min/mg; Fh (in vitro [5]): 57%; Fh (in vitro [6]): 53% |
| CC(C)C1(N2CCC3(CC2)C(=O)NCC3c2ccccc2)CCCCC1 (racemic) | 970 | – |
| O=C1NCC(c2ccc(F)cc2)C12CCN(C1(c3ccc(F)cc3)CCCCC1)CC2 (racemic) | – | EC50 [2]: > 30000 nM |
| CC(C)=CC1(N2CCC3(CC2)C(=O)NCC3c2ccccc2)CCCCC1 (racemic) | 979 | – |
| Cc1ccc(C2CNC(=O)C23CCN(C2(c4ccccc4)CCCCC2)CC3)cc1 (racemic) | 139 | – |
| Cc1ccccc1C1(N2CCC3(CC2)C(=O)NCC3c2ccc(F)cc2)CCCCC1 (racemic) | 350 | EC50 [2]: > 30000 nM |
| CCCC1CNC(=O)C12CCN(C1(c3cccs3)CCCCC1)CC2 (racemic) | 229 | – |
| O=C1NCC(c2ccccc2)C12CCN(C1(c3cccs3)CCCCC1)CC2 (racemic) | 147 | – |
| O=C1NCC(c2ccccc2)C12CCN(C1(c3ccc(OC(F)(F)F)cc3)CCCCC1)CC2 (racemic) | 4560 | – |
| O=C1NCC(c2ccccc2)C12CCN(C1(c3ccsc3)CCCCC1)CC2 (racemic) | 682 | – |
| CCCC1CNC(=O)C12CCN(C1(c3ccc(C)s3)CCCCC1)CC2 (racemic) | 113 | – |
| O=C1NCC(c2ccccc2)C12CCN(C1(C3CCCCC3)CCCCC1)CC2 (racemic) | 15200 | – |
| O=C1NCC(c2ccc(F)cc2)C12CCN(C1(c3cccc(F)c3)CCCCC1)CC2 (racemic) | 393 | EC50 [2]: > 30000 nM |
| CCC1(N2CCC3(CC2)C(=O)NCC3c2ccc(F)cc2)CCCCC1 (racemic) | 1470 | – |
| Cl.O=C1NCC(c2ccc(F)cc2)C12CCN(C1(c3ccsc3)CCCCC1)CC2 (racemic) | 99 | microsomal CLint (in vitro [3]): 39 µL/min/mg; microsomal CLint (in vitro [4]): 4 µL/min/mg; Fh (in vitro [5]): 45%; Fh (in vitro [6]): 78% |
| Cl.O=C1NCC(c2ccc(F)cc2)C12CCN(C1(c3cccs3)CCCCC1)CC2 (racemic) | – | microsomal CLint (in vitro [3]): 80 µL/min/mg; microsomal CLint (in vitro [4]): 9 µL/min/mg; Fh (in vitro [5]): 28%; Fh (in vitro [6]): 64% |
| Cc1cccc(C2(N3CCC4(CC3)C(=O)NCC4c3ccc(F)cc3)CCCCC2)c1 (single isomer, unassigned; diastereomer 1) | 4000 | – |

| SMILES | EC50 [1] [nM] | further results |
| --- | --- | --- |
| O=C1NCC(c2ccccc2)C12CCN(C1(c3ccc(Cl)cc3)CCCCC1)CC2 (single isomer, unassigned; diastereomer 1) | – | EC50 [2]: > 30000 nM |
| O=C1NCC(c2ccccc2)C12CCN(C1(c3ccccc3)CCOCC1)CC2 (single isomer, unassigned; diastereomer 1) | 3660 | – |
| COc1cccc(C2(N3CCC4(CC3)C(=O)NCC4c3ccccc3)CCCCC2)c1 (single isomer, unassigned; diastereomer 1) | 5610 | – |
| N#Cc1ccc(C2(N3CCC4(CC3)C(=O)NCC4c3ccccc3)CCCCC2)cc1 (single isomer, unassigned; diastereomer 1) | > 30000 | – |
| O=C1NCC(c2ccccc2)C12CCN(C1(c3ccccc3)CCCCC1)CC2 (single isomer, unassigned; diastereomer 1) | – | EC50 [2]: > 30000 nM |
| O=C1NCC(c2ccccc2)C12CCN(C1(c3ccc(C(F)(F)F)cc3)CCCCC1)CC2 (single isomer, unassigned; diastereomer 1) | 1210 | – |
| O=C1NCC(c2ccc(F)cc2)C12CCN(C1(c3ccsc3)CCCCC1)CC2 (single isomer, unassigned; diastereomer 1) | 213 | – |
| O=C1NCC(c2ccccc2)C12CCN(C1(c3cccc(F)c3)CCCCC1)CC2 (single isomer, unassigned; diastereomer 1) | 423 | EC50 [2]: > 30000 nM |
| Cc1ccc(C2(N3CCC4(CC3)C(=O)NCC4c3ccc(F)cc3)CCCCC2)cc1 (single isomer, unassigned; diastereomer 1) | 1470 | – |
| F.O=C1NCC(c2ccc(F)cc2)C12CCN(C1(c3ccc(F)cc3)CCCCC1)CC2 (single isomer, unassigned; diastereomer 1) | – | EC50 [2]: > 30000 nM; Fh (in vitro [5]): 46%; Fh (in vitro [6]): 67% |
| Cc1cccc(C2(N3CCC4(CC3)C(=O)NCC4c3ccc(F)cc3)CCCCC2)c1 (single isomer, unassigned; diastereomer 2) | 949 | EC50 [2]: > 30000 nM |
| O=C1NCC(c2ccccc2)C12CCN(C1(c3ccc(Cl)cc3)CCCCC1)CC2 (single isomer, unassigned; diastereomer 2) | – | EC50 [2]: > 30000 nM |
| Cc1ccc(C2(N3CCC4(CC3)C(=O)NCC4c3ccccc3)CCCCC2)cc1 (single isomer, unassigned; diastereomer 2) | 480 | EC50 [2]: > 30000 nM |
| COc1cccc(C2(N3CCC4(CC3)C(=O)NCC4c3ccccc3)CCCCC2)c1 (single isomer, unassigned; diastereomer 2) | 26200 | – |
| O=C1NCC(c2ccc(F)cc2)C12CCN(C1(c3cccc(OC(F)(F)F)c3)CCCCC1)CC2 (single isomer, unassigned; diastereomer 2) | 21500 | – |
| O=C1NCC(c2ccccc2)C12CCN(C1(c3ccccc3)CCCCC1)CC2 (single isomer, unassigned; diastereomer 2) | – | EC50 [2]: > 30000 nM |
| O=C1NCC(c2ccccc2)C12CCN(C1(c3cccc(F)c3)CCCCC1)CC2 (single isomer, unassigned; diastereomer 2) | 684 | EC50 [2]: > 30000 nM |
| Cc1ccc(C2(N3CCC4(CC3)C(=O)NCC4c3ccc(F)cc3)CCCCC2)cc1 (single isomer, unassigned; diastereomer 2) | 419 | – |
| O=C1NCC(c2ccccc2)C12CCN(C1(c3ccc(C(F)(F)F)cc3)CCCCC1)CC2 (single isomer, unassigned; diastereomer 2) | 6970 | – |
| O=C1NCC(c2ccccc2)C12CCN(C1(c3ccccc3)CCOCC1)CC2 (single isomer, unassigned; diastereomer 4) | 525 | – |
| Cc1ccc(C2(N3CCC4(CC3)C(=O)NCC4c3ccccc3)CCCCC2)cc1 (stereo in doubt) | 284 | EC50 [2]: > 30000 nM |
| N#Cc1ccc(C2(N3CCC4(CC3)C(=O)NCC4c3ccccc3)CCCCC2)cc1 (stereo in doubt) | 16000 | – |
| O=C1NCC(c2ccc(F)cc2)C12CCN(C1(c3cccc(OC(F)(F)F)c3)CCCCC1)CC2 (stereo in doubt) | 16700 | – |
| O=C1NCC(c2ccc(F)cc2)C12CCN(C1(c3ccsc3)CCCCC1)CC2 (stereo in doubt) | 99 | – |
| O=C1NCC(c2ccccc2)C12CCN(C1(c3ccccc3)CCOCC1)CC2 (stereo in doubt; form 1) | 7290 | – |
| O=C1NCC(c2ccccc2)C12CCN(C1(c3ccccc3)CCOCC1)CC2 (stereo in doubt; form 2) | > 30000 | – |
